In brackets after ≈: the same amount, converted by molar mass. Activity calls are given as the source filed them. The calls are words filed in the database; no cut-off is given here.
Legend:
[1] = Solubility of the compound at pH 7.4; format: physicochemical; details: buffer
cells = details: Homo sapiens, HEK-293T, 14 h
Description: Inhibition of TNFalpha-induced NFkappaB activation in HEK293T cells after 14 hrs by luciferase reporter gene assay

HEK-293T [2] = assay: Cytotoxicity against HEK293T cells at 20 uM by alamar blue assay; format: cell-based; details: human
[3] = biological target: T1, Nucleotide-binding oligomerization domain-containing protein 2 (Homo sapiens, UniProt Q9HC29)
[4] = biological target: T2, Nucleotide-binding oligomerization domain-containing protein 1 (Homo sapiens, UniProt Q9Y239)
T2 sequence (Q9Y239 whole entry): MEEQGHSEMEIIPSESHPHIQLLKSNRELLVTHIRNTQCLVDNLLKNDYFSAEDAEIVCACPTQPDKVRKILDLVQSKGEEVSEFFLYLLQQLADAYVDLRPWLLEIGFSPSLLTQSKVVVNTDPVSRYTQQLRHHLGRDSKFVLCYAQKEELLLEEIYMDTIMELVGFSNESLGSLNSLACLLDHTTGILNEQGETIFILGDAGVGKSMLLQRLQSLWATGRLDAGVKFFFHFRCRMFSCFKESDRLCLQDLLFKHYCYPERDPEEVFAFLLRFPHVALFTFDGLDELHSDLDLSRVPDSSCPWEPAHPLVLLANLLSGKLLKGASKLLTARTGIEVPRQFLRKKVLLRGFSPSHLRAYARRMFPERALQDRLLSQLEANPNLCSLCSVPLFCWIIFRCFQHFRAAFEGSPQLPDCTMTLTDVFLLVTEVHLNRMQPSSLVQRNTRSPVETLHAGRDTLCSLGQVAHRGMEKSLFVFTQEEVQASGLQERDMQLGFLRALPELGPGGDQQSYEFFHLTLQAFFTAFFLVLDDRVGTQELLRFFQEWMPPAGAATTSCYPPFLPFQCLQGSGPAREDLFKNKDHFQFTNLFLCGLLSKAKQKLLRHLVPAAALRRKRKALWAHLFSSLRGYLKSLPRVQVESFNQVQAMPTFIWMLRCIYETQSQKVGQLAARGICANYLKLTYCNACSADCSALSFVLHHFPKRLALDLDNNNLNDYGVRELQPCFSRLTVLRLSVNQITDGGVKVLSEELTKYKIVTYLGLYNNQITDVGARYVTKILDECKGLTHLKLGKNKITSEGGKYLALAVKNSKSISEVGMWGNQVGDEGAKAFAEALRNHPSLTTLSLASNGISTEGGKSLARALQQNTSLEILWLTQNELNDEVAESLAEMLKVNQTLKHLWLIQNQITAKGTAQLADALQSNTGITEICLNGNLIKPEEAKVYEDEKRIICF

MCF7 = assay: Inhibition of TNFalpha-induced IL8 secretion in human MCF7 cells at 0.25 to 5 uM by ELISA; format: functional, cell-based
HEK-293T [5] = assay: Inhibition of doxorubicin-induced NFkappaB activation at 0.25 to 25 uM in HEK293T cells by luciferase reporter gene assay; format: cell-based; details: Homo sapiens
[6] = biological target: Serine/threonine-protein kinase RIO2 (Homo sapiens) (UniProt Q9BVS4); assay: Inhibition of RIOK2 at 10 uM relative to control
[7] = biological target: Histamine H1 receptor (Homo sapiens) (UniProt P35367); assay: Inhibition of H1 histamine receptor at 10 uM
[8] = Plasma protein binding in human at 1 uM after 4 hrs; format: ADME, cell-free; details: read-out: PPB (converted)
[9] = Plasma protein binding in human at 10 uM after 4 hrs; format: ADME, cell-free; details: read-out: PPB (converted)
[10] = Plasma concentration in mouse at 15 mg/kg, ip at 20 mins
[11] = Plasma concentration in mouse at 30 mg/kg, ip at 120 mins
HEK-293T [12] = assay: Inhibition of PMA/ionomycin-induced NFkappaB activation at 0.25 to 25 uM in HEK293T cells by luciferase reporter gene assay; format: cell-based; details: Homo sapiens
[13] = biological target: 5-hydroxytryptamine receptor 6 (Homo sapiens) (UniProt P50406); assay: Inhibition of 5HT6 receptor at 10 uM
[14] = biological target: Receptor-type tyrosine-protein kinase FLT3 (Homo sapiens) (UniProt P36888); assay: Inhibition of CFLT3 at 10 uM relative to control
[15] = biological target: T3, Aurora kinase C (Homo sapiens) (UniProt Q9UQB9); assay: Inhibition of AURKC at 10 uM relative to control
T3 sequence (whole entry): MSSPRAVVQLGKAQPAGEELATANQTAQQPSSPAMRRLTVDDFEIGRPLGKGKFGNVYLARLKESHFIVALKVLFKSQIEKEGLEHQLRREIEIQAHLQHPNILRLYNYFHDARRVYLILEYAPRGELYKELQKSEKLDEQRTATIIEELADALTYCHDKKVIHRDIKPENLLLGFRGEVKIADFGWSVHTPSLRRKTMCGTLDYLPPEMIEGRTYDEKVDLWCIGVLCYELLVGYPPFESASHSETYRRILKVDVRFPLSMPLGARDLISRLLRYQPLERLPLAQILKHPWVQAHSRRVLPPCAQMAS

[16] = biological target: Aurora kinase B (Homo sapiens) (UniProt Q96GD4); assay: Inhibition of AURKB at 10 uM relative to control
[17] = Metabolic stability in human liver microsomes assessed as compound remaining at 1 uM preincubated for 10 mins measured after 60 mins; format: ADME, Microsome; details: read-out: Stability
[18] = Cytotoxicity against human NCI60 cells; format: cell-based
[19] = biological target: T4, Aurora kinase A (Homo sapiens) (UniProt O14965); assay: Inhibition of AURKA at 10 uM relative to control
T4 sequence (whole entry): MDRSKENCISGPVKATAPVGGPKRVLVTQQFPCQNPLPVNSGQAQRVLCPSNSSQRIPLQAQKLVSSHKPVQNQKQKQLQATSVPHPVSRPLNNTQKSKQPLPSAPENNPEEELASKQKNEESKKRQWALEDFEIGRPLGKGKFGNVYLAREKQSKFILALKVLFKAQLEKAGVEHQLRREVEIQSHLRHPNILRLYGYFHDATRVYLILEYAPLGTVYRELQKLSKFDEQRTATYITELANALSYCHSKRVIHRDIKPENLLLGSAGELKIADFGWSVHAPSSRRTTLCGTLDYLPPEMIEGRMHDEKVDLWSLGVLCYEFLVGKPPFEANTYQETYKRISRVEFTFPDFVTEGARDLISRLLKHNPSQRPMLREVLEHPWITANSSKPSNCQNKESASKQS

[20] = Plasma concentration in mouse at 30 mg/kg, ip at 20 mins
[21] = Metabolic stability in human plasma assessed as compound remaining at 1 uM after 180 mins; format: ADME, cell-free; details: read-out: Stability
[22] = Metabolic stability in mouse plasma assessed as compound remaining at 1 uM after 180 mins; format: ADME, cell-free; details: read-out: Stability
[23] = Metabolic stability in mouse liver microsomes assessed as compound remaining at 1 uM preincubated for 10 mins measured after 60 mins; format: ADME, Microsome; details: read-out: Stability
[24] = Plasma concentration in mouse at 15 mg/kg, ip at 120 mins
[25] = biological target: T5, Nucleotide-binding oligomerization domain-containing protein 1 (Homo sapiens) (UniProt Q9Y239); details: MCF7, 0.25 to 5 uM
T5 sequence (whole entry): T2 sequence (Q9Y239 whole entry)

[26] = Plasma protein binding in mouse at 10 uM after 4 hrs; format: ADME, cell-free; details: read-out: PPB (converted)
[27] = Plasma protein binding in mouse at 1 uM after 4 hrs; format: ADME, cell-free; details: read-out: PPB (converted)
[28] = biological target: T1, Nucleotide-binding oligomerization domain-containing protein 2; assay: Inhibition of NOD-2 in human MCF7 cells assessed as inhibition of MDP-induced IL8 secretion at 0.25 to 5 uM by ELISA; format: cell-based
[29] = Cytotoxicity against human Fa2N-4 cells after 24 hrs by ATP-lite assay; format: cell-based; details: read-out: LD50
[30] = biological target: 5-hydroxytryptamine receptor 2B (Homo sapiens) (UniProt P41595); assay: Inhibition of 5HT2B receptor at 10 uM
Sequence of 5-hydroxytryptamine receptor 2B (Homo sapiens) (P41595 whole entry): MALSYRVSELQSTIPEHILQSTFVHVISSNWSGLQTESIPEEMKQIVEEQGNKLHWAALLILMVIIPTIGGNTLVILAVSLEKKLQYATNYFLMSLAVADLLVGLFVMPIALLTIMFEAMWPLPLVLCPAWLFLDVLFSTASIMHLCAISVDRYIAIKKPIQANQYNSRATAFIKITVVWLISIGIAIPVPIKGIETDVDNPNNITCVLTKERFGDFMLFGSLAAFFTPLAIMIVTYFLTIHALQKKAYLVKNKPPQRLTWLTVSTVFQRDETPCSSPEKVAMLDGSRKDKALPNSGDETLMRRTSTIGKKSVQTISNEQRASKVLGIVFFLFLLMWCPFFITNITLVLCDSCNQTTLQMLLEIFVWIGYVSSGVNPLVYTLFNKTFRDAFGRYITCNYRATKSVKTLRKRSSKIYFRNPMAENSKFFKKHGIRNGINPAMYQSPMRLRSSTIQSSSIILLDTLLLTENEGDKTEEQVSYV

T1 sequence (Q9HC29 whole entry, the tested form may be a part): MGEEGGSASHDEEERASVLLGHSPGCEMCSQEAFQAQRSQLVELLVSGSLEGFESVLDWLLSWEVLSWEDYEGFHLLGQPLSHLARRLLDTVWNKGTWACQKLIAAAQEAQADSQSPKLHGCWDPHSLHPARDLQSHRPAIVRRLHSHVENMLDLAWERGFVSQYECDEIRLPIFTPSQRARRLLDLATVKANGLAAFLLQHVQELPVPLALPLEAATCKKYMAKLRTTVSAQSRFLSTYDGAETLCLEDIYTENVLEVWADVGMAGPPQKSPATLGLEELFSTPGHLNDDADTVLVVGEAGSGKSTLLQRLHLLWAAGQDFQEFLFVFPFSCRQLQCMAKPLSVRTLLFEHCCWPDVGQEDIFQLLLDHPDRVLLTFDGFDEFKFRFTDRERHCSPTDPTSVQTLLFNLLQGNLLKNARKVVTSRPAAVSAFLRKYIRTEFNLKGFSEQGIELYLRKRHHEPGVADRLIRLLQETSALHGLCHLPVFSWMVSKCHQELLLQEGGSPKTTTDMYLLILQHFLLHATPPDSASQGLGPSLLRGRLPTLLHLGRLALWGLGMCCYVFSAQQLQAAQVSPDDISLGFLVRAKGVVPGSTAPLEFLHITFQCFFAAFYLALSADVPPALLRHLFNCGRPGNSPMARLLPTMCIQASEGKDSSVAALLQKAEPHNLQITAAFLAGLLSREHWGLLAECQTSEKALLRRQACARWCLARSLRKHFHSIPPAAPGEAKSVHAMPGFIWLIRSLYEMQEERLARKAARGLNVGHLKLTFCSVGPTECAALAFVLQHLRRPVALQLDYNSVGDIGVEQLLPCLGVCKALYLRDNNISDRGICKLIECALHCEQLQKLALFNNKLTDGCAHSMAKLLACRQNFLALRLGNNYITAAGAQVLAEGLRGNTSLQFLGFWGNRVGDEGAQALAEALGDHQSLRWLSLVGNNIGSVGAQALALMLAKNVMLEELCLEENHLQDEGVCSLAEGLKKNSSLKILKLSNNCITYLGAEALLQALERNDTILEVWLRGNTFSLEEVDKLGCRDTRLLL
Sequence of Histamine H1 receptor (Homo sapiens) (P35367 whole entry): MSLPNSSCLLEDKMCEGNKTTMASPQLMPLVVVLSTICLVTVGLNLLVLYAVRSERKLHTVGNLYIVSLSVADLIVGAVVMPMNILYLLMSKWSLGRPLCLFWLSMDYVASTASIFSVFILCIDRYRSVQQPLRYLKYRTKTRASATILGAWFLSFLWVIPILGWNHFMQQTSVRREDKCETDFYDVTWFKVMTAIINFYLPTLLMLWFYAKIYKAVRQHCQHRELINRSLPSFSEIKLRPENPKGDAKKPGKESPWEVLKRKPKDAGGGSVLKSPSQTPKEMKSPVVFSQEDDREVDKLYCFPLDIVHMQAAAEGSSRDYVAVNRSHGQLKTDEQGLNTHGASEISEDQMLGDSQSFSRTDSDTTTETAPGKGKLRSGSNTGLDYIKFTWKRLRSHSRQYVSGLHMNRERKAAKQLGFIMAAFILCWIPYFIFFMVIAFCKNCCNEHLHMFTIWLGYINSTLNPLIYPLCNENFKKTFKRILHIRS
Sequence of Receptor-type tyrosine-protein kinase FLT3 (Homo sapiens) (P36888 whole entry): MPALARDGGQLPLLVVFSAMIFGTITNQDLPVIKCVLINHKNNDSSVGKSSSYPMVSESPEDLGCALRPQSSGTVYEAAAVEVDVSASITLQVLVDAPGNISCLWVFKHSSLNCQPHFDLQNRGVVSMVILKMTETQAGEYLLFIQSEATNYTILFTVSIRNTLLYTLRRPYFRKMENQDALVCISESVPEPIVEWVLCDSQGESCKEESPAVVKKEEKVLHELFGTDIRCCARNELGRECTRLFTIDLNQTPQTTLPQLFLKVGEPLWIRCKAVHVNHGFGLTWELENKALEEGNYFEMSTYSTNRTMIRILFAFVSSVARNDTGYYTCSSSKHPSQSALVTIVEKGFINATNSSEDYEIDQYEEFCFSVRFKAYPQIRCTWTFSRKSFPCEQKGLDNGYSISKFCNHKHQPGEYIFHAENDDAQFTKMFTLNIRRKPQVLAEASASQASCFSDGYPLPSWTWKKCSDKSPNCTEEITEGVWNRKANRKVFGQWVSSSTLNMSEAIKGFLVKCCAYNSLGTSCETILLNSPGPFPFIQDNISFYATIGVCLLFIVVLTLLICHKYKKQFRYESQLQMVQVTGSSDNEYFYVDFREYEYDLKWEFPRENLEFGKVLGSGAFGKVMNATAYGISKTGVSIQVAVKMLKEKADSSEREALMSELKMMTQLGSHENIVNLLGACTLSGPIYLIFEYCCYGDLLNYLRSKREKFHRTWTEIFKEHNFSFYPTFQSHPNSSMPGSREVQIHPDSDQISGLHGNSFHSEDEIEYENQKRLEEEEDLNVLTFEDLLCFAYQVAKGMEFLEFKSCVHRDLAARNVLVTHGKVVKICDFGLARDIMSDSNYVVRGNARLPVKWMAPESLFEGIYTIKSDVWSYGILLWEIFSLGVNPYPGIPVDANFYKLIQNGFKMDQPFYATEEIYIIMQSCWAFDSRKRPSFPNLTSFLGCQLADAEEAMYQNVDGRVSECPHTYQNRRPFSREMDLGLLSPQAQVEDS
Sequence of Serine/threonine-protein kinase RIO2 (Homo sapiens) (Q9BVS4 whole entry, looked up): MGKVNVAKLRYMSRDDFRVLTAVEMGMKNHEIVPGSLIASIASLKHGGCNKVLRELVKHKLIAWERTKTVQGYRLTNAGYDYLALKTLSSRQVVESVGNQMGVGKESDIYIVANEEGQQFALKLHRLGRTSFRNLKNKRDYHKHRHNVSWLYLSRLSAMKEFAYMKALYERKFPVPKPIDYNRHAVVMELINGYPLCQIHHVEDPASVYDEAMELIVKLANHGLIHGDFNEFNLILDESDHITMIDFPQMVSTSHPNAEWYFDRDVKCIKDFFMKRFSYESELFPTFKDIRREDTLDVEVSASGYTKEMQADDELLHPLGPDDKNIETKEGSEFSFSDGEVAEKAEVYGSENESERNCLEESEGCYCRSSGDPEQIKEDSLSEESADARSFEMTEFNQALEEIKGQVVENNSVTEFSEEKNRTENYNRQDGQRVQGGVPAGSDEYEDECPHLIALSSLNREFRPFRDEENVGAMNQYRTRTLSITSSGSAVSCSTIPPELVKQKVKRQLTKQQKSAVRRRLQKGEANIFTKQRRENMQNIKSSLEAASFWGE
Sequence of Aurora kinase B (Homo sapiens) (Q96GD4 whole entry): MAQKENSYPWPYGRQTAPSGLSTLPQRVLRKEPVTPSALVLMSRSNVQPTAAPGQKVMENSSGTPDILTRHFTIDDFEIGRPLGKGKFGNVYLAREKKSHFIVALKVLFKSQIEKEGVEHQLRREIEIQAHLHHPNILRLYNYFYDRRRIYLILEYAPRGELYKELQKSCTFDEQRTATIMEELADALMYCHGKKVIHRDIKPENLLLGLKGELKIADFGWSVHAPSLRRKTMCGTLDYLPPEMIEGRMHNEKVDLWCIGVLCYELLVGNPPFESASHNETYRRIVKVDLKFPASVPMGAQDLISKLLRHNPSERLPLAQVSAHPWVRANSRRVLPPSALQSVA
Sequence of 5-hydroxytryptamine receptor 6 (Homo sapiens) (P50406 whole entry): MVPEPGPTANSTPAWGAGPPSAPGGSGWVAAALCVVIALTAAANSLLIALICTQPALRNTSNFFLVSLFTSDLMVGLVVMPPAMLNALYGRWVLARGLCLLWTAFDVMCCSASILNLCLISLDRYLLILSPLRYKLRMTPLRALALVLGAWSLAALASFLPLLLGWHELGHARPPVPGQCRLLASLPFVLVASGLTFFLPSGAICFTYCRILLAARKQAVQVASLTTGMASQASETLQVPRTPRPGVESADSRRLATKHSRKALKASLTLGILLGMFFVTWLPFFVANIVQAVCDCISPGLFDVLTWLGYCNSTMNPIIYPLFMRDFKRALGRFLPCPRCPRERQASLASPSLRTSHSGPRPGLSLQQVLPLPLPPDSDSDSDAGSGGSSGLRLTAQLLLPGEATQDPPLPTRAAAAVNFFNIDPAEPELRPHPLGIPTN

CCC(=O)N1CCc2cc(S(=O)(=O)N3CCN(c4ccc(Cl)cc4)CC3)ccc21
solubility [1]: 0.1 µg/mL (≈ 0.23 µM)
IC50 (cells): > 20 µM
Activity (HEK-293T [2]): 0%
IC50 [3]: > 20 µM
IC50 [4]: > 20 µM

CC(=O)c1ccc(N2CCN(S(=O)(=O)c3ccc4c(c3)CC(C)N4C(=O)C3CC3)CC2)cc1 (racemic)
solubility [1]: 0.1 µg/mL (≈ 0.214 µM)
IC50 (cells): > 20 µM
Activity (HEK-293T [2]): 0%
IC50 [3]: 7.9 µM
IC50 [4]: 10.3 µM

CC1Cc2cc(S(=O)(=O)N3CCN(c4ccccc4)CC3)ccc2N1C(=O)C1CC1 (racemic)
solubility [1]: 0.1 µg/mL (≈ 0.235 µM)
IC50 (cells): 15.3 µM
Activity (HEK-293T [2]): 0%
IC50 [3]: 17.4 µM
IC50 [4]: > 20 µM

O=C(C1CC1)N1CCc2cc(S(=O)(=O)N3CCN(c4ccc(Cl)cc4)CC3)ccc21
solubility [1]: 0.1 µg/mL (≈ 0.224 µM)
IC50 (cells): > 20 µM
Activity (HEK-293T [2]): 0%
IC50 [3]: > 20 µM
IC50 [4]: > 20 µM

CCC(=O)N1CCc2cc(S(=O)(=O)N3CCN(c4ccc(C(C)=O)cc4)CC3)ccc21
solubility [1]: 0.1 µg/mL (≈ 0.226 µM)
IC50 (cells): > 20 µM
Activity (HEK-293T [2]): 0%
IC50 [3]: > 20 µM
IC50 [4]: > 20 µM

O=C(Nc1ccc(Cl)cc1)c1ccc(CCN2CCc3ccccc3C2)cc1
IC50 (cells): > 20 µM
Activity (HEK-293T [2]): 0%
IC50 [3]: > 20 µM
IC50 [4]: > 20 µM

CCOc1ccc(NC(=O)c2ccc(CN3CCc4ccccc43)cc2)cc1
IC50 (cells): > 20 µM
Activity (HEK-293T [2]): 0%
IC50 [3]: > 20 µM
IC50 [4]: > 20 µM

Nc1nc2ccccc2n1C(=O)Cc1ccccc1
IC50 (cells): > 20 µM
Activity (HEK-293T [2]): 0%
IC50 [3]: > 20 µM
IC50 [4]: > 20 µM

Cc1ccc(S(=O)(=O)n2c(N)nc3ccccc32)cc1
inhibition (MCF7): inactive
inhibition (HEK-293T [5]): inactive
inhibition [6]: 6%
inhibition [7]: 89%
fraction unbound at 4 h, 1 µM [8]: 0.025
fraction unbound at 4 h, 10 µM [9]: 0.023
concentration at 20 min [10]: 1200 ng/mL
concentration at 2 h [11]: < 500 ng/mL
IC50 (cells): > 20 µM
inhibition (HEK-293T [12]): inactive
inhibition [13]: 92%
inhibition [14]: 27%
inhibition [15]: 23%
inhibition [16]: 21%
remaining at 1 h, 1 µM [17]: 41.8%
Activity [18]: Non-toxic
Activity (HEK-293T [2]): 0%
inhibition [19]: inactive
concentration at 20 min [20]: 5500 ng/mL
remaining at 3 h, 1 µM [21]: 100%
remaining at 3 h, 1 µM [22]: 100%
remaining at 1 h, 1 µM [23]: 0.8%
concentration at 2 h [24]: < 500 ng/mL
inhibition [25]: Active
fraction unbound at 4 h, 10 µM [26]: 0.045
fraction unbound at 4 h, 1 µM [27]: 0.05
inhibition [28]: inactive
CC50 at 24 h [29]: > 50 µM
inhibition [30]: 69%

Cc1ccc(N2CCN(S(=O)(=O)c3ccc4c(c3)CC(C)N4C(=O)C3CC3)CC2)cc1 (racemic)
solubility [1]: 0.1 µg/mL (≈ 0.227 µM)
IC50 (cells): > 20 µM
Activity (HEK-293T [2]): 0%
IC50 [3]: > 20 µM
IC50 [4]: > 20 µM

— ChEMBL document CHEMBL2016464, “Identification of Inhibitors of NOD1-Induced Nuclear Factor-κB Activation” (ACS Med Chem Lett, 2011)
